The target of one assay is T1, Akt1 (Homo sapiens, UniProt P31749).
T1 construct: purchased 32-021
As to the kind of experiment: AKT1/PKBα KinEASE FP Fluorescein Green Assay (fluorescence polarization kinase kit). The format is biochemical. The following applies: 1 h reaction, read-out: Inhibitory activities against Akt1 (IC50). In outline:
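FP competition kinase assay: compounds (50 μM stock) with STK Substrate 3 and ATP, 1 h reaction at room temperature; stopped with stop/antibody mix, 4 h at room temperature, then polarization read. Inhibition derived from polarization values; IC50 calculated; triplicate wells.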

The subject of assay [1] is Human ovarian cancer cell strain OVCAR-8. As to the kind of experiment: MTT assay, inhibition of tumor cell growth in vitro, 72 h. The following applies: Homo sapiens, OVCAR-8, MTT, read-out: Antitumor proliferative activities of tumor cell (IC50, μM) OVCAR-8. The format is cell-based. In short, it runs like this: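 OVCAR8 cells in RPMI 1640 plus FBS were seeded at 4000 cells/well and exposed for 72 h at 37 °C to compound at 50, 10, 2, 0.4 and 0.08 μM final, with 1% DMSO as blank. Inhibition was calculated from OD relative to control, and IC50 was derived by the Bliss method.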

Assay [2] deals with human colon cancer cell strain HCT-116. The assay is described as above. In kind it is cell-based. The following applies: Homo sapiens, HCT-116, MTT, read-out: Antitumor proliferative activities of tumor cell (IC50, μM) HCT-116 (converted). In outline:
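Cells in RPMI 1640 with FBS, 4000 cells/well, exposed 72 h at 37 °C, 5% CO2 to final 50, 10, 2, 0.4 and 0.08 μM; 1% DMSO blank. MTT OD gives % inhibition versus control; IC50 derived by Bliss method.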

The structures appear in SMILES notation. pIC50: −log10 of the molar value.

This note sets out measurements from patent publication US10233180B2, “Substituted nitrogen-containing heterocyclic derivatives, pharmaceutical compositions comprising the same and applications of antitumor thereof” (ZHEJIANG UNIVERSITY, priority 2014, dated 2019).

T1 sequence (P31749 whole entry): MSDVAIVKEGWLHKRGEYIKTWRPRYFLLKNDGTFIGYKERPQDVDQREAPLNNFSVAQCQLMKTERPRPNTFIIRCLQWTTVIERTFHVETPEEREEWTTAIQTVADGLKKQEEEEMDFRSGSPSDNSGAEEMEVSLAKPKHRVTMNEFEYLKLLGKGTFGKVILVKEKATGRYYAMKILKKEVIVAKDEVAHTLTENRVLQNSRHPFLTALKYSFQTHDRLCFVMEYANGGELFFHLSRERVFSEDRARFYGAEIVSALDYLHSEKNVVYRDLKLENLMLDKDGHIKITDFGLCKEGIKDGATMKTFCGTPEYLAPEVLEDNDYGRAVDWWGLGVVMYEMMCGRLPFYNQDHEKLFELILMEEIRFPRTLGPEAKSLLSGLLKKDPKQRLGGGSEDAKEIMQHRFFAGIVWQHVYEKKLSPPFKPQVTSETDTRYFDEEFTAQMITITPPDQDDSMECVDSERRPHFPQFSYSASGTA

As to `Cn1ncc(-c2ccncc2)c1-c1ccc(C(=O)N[C@@H]2CNCC[C@H]2c2cccc(F)c2)s1` [Compound 140, N-((3S, 4S)-4-(3-fluorophenyl)piperidin-3-yl)-5-(1-methyl-4-(pyridinyl-4-yl)-1H-pyrazol-5-yl)thiophene-2-formamide], at Akt1, the pIC50 was 9.00. Also, the results for the IC50 in assay [1] and in assay [2] were 6.67 µM and 1.1 µM, respectively.

Take `Cn1ncc(Cl)c1-c1ccc(C(=O)N[C@@H]2CNCC[C@H]2c2ccc(F)c(F)c2)cc1-c1ccoc1` [Compound 87, 4-(4-chloro-1-methyl-1H-pyrazol-5-yl)-N-((3S,4S)-4-(3,4-difluorophenyl)piperidin-3-yl)-3-(furan-3-yl)benzamide]: the pIC50 at Akt1 is 8.00. Further, the IC50 in assay [1] was 2.43 µM; in assay [2], 5.63 µM.

Turning to `CCc1cnn(C)c1-c1cc(F)c(C(=O)N[C@@H]2CNCC[C@H]2c2ccc(Cl)c(C(F)(F)F)c2)c(F)c1` [Compound 75, N-((3S,4S)-4-(4-chloro-3-(trifluoromethyl)phenyl)piperidin-3-yl)-4-(4-ethyl-1-methyl-1H-pyrazol-5-yl)-2,6-difluorobenzamide], the pIC50 at Akt1 was 7.89. The IC50 in assay [1] was 2.19 µM; in assay [2], 0.99 µM.

Turning to `Cn1ncc(Cl)c1-c1cc(C(=O)N[C@@H]2CNC(CC(=O)NCC(O)CO)C[C@H]2c2ccc(Cl)c(Cl)c2)oc1Cl` (stereo partly drawn) [Compound 121, 5-chloro-4-(4-chloro-1-methyl-1H-pyrazol-5-yl)-N-((3S,4S)-4-(3,4-dichlorophenyl)-6-(2-((2,3-dihydroxypropyl)amido)-2-oxoethyl)piperidin-3-yl)furan-2-formamide], the pIC50 at Akt1 is 8.30. For the same molecule, the IC50 in assay [1] is 0.74 µM; in assay [2], 0.36 µM.

Take `Cn1ncc(Br)c1-c1coc(C(=O)N[C@H]2CNCC[C@@H]2c2ccccc2)c1` (racemic) [Compound 22, 4-(4-bromo-1-methyl-1H-pyrazol-5-yl)-N-(3,4-trans-4-phenylpiperidin-3-yl) furan-2-formamide]: the pIC50 on Akt1 is 6.97. The IC50 is 7.89 µM in assay [1] and 12.2 µM in assay [2].

Take `Cn1nccc1-c1ccc(C(=O)N[C@@H]2CNCC[C@H]2c2cccc(F)c2)s1` [Compound 146, N-((3S, 4S)-4-(3-fluorophenyl)piperidin-3-yl)-5-(1-methyl-1H-pyrazol-5-yl)thiophene-2-formamide]: the pIC50 on Akt1 is 8.15. For the same molecule, the IC50 in assay [1] was 4.19 µM; in assay [2], 0.44 µM.

As to `CNC(=O)CC1C[C@@H](c2ccc(F)c(F)c2)[C@H](NC(=O)c2ccc(-c3c(Cl)cnn3C)cc2)CN1` (stereo partly drawn) [Compound 98], on Akt1, the pIC50 is 8.40. In addition, the IC50 was 1.82 µM in assay [1] and 0.92 µM in assay [2].

Turning to `Cn1ncc(Cl)c1-c1cc(C(=O)N[C@H]2CNCC[C@@H]2c2ccc(C(F)(F)F)cc2)oc1Cl` [Compound 43, 5-chloro-4-(4-chloro-1-methyl-1H-pyrazol-5-yl)-N-((3R,4R)-4-(4-trifluoromethylphenyl)piperidin-3-yl)furan-2-formamide], on Akt1, the pIC50 is 6.47. Besides, the IC50 in assay [1] is 3.58 µM; in assay [2], 13.8 µM.

With `Cn1ncc(Cl)c1-c1cc(C(=O)N[C@H]2CNCC[C@@H]2c2ccc(F)c(F)c2)oc1Cl` (racemic) [Compound 31, 5-chloro-4-(4-chloro-1-methyl-1H-pyrazol-5-yl)-N-(3,4-trans-4-(3,4-difluorophenyl)piperidin-3-yl)furan-2-formamide], the pIC50 at Akt1 was 7.74. The IC50 in assay [1] is 4.54 µM; in assay [2], 1.85 µM.

Consider `Cn1ncc(CO)c1-c1ccc(C(=O)N[C@@H]2CNCC[C@H]2c2cccc(F)c2)s1` [Compound 141, N-((3S, 4S)-4-(3-fluorophenyl)piperidin-3-yl)-5-(4-(hydroxylmethyl)-1-methyl-1H-pyrazol-5-yl)thiophene-2-formamide], for which the pIC50 at Akt1 was 7.92. Besides, the IC50 was 1.05 µM in assay [1] and 6.56 µM in assay [2].

Turning to `Cn1ncc(Cl)c1-c1cc(C(=O)N[C@@H]2CNC(CCN3CCCC3)C[C@H]2c2ccc(Cl)c(Cl)c2)oc1Cl` (stereo partly drawn) [Compound 110, 5-chloro-4-(4-chloro-1-methyl-1H-pyrazol-5-yl)-N-((3S,4S)-4-(3,4-dichlorophenyl)-6-(2-(pyrrolidin-1-yl)ethyl)piperidin-3-yl)furan-2-formamide], at Akt1, the pIC50 is 7.96. For the same molecule, the IC50 was 1.21 µM in assay [1] and 0.89 µM in assay [2].

With `CC(=O)OCCC1C[C@@H](c2ccc(F)c(F)c2)[C@H](NC(=O)c2cc(-c3c(Cl)cnn3C)c(Cl)o2)CN1` (stereo partly drawn) [Compound 131, 2-((4S,5S)-5-(5-chloro-4-(4-chloro-1-methyl-1H-pyrazol-5-yl)furan-2-formamido)-4-(3,4-difluorophenyl)piperidin-2-yl)ethylacetate], at Akt1, the pIC50 is 9.10. In addition, the IC50 in assay [1] is 4.69 µM; in assay [2] it was 0.92 µM.

Turning to `Cc1[nH]c(C(=O)N[C@H]2CNCC[C@@H]2c2ccncc2)cc1-c1c(Br)cnn1C` (racemic) [Compound 6, 5-methyl-4-(4-bromo-1-methyl-1H-pyrazol-5-yl)-N-(3,4-trans-4-(pyridin-4-yl)piperidin-3-yl)-1H-pyrrole-2-formamide], the pIC50 on Akt1 is 7.49. In addition, the IC50 in assay [1] is 3.68 µM; in assay [2], 10.8 µM.

For the molecule `Cc1cnn(C)c1-c1cnc(C(=O)N[C@H]2CNCC[C@@H]2c2ccc[nH]2)nc1C` (racemic) [Compound 60, 4-methyl-5-(1,4-dimethyl-1-methyl-1H-pyrazol-5-yl)-N-(3,4-trans-4-(pyrrole-2-yl)piperidins-3-yl)pyrimidine-2-formamide], at Akt1, the pIC50 is 6.01. The IC50 in assay [1] is 6.01 µM; in assay [2], 2.27 µM.

In the case of `Cn1ncc(Cl)c1-c1ccc(C(=O)N[C@@H]2CNCC[C@H]2c2ccc(F)c(F)c2)c(-c2csc(Cl)c2)c1` [Compound 90, 4-(4-chloro-1-methyl-1H-pyrazol-5-yl)-2-(5-chlorothiophene-3-yl)-N-((3S, 4S)-4-(3,4-difluorophenyl)piperidin-3-yl)benzamide], on Akt1, the pIC50 is 7.85. Also, the IC50 in assay [1] was 1.83 µM; in assay [2], 0.69 µM.

With `CNC(=O)CC1C[C@@H](c2ccc(Cl)c(Cl)c2)[C@H](NC(=O)c2cc(-c3c(Cl)cnn3C)c(Cl)o2)CN1` (stereo partly drawn) [Compound 118, 5-chloro-4-(4-chloro-1-methyl-1H-pyrazol-5-yl)-N-((3S,4S)-4-(3,4-dichlorophenyl)-6-(2-(methylamido)-2-oxoethyl)piperidin-3-yl)furan-2-formamide], on Akt1, the pIC50 is 8.52. Besides, the IC50 was 4.02 µM in assay [1] and 3.68 µM in assay [2].
